Assay results as given in patent US6391857B1, “Methods and compositions for endothelial binding” (Stanford University, priority 1990, dated 2002).

What was measured:
mouse LECAM-1 = target: T1, mouse LECAM-1 (Mus musculus, UniProt P18337); experiment: Cell binding assay: mouse lymphocytes on coated synthetic glycoconjugates; type: cell-based; details: mesenteric lymph node lymphocytes, 3×10^6 cells in 0.15 ml
T1 construct: Mouse lymphocytes isolated from mesenteric lymph nodes were also tested; endogenous in cells; host or cells: primary mouse lymphocytes from mesenteric lymph nodes
T1 sequence (P18337 39-372): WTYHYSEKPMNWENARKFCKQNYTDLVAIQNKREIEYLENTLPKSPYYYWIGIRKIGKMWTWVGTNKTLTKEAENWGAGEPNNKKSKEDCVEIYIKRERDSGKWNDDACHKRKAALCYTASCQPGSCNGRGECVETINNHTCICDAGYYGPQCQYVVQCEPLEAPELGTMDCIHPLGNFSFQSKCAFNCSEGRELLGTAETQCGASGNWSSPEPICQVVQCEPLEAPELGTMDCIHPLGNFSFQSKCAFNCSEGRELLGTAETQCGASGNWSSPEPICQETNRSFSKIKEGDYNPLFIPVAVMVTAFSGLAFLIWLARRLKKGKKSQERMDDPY
Protocol: Cell binding assays. One hundred microliter samples of each synthetic glycoconjugate in phosphate buffered saline (PBS), pH7.2, were absorbed onto glass wells of 8-chamber slides (LabTek) for two hours at RT. After blocking with 5% NBS, 10 mM HEPES, Dulbecco's Modified Eagles Medium (DMEM), pH7.0 (CM), L1-2^LECAM-1, L1-2^vector or L1-2^ELAM-1 cells were applied to each well (1.5×10^6 cells in 0.15 ml CM). Mouse lymphocytes isolated from mesenteric lymph nodes were also tested at 3×10^6 cells in 0.15 ml. In some cases, cells were preincubated with monoclonal antibody MEL-14 (Gallatin et al., 1983, supra) at 150 μg/ml/10^7 cells and washed prior to testing. After a 25 minute incubation at RT on a rotating shaker at 50 rpm, the tops of the wells were removed and the slides washed 3× in DMEM and then fixed by incubation in 1.5% glutaraldehyde (Kodak) in DMEM. Three to six 100× fields were counted for each data point and the average and standard error are reported. Data reported are from representative experiments which were performed 2-5 times with similar results.

antibody 1H10 = experiment: Direct binding ELISA of antibody 1H10 to solid-phase neoglycoproteins; design: species or system mouse; details: 100 ng neoglycoprotein per well, antibody 10 μg/ml
Protocol: Synthetic glycoproteins were coated onto microtiter plates by filling each well with 100 ng of the neoglycoprotein in 100 μl of 0.15 M sodium chloride, 0.01 M sodium phosphate, 0.1% sodium azide, pH 7.4, (PBS-azide) overnight at 4° C. Standard enzyme-linked immunoassays (ELISA) were then performed on the solid phase carbohydrate structures using the appropriate antibody diluted to 10 μg/ml.

ELAM-1 = target: T2, ELAM-1 (Homo sapiens, UniProt P16581); experiment: Cell binding assay: L1-2^ELAM-1 cells on glass slides coated with synthetic glycoconjugates; type: cell-based; details: 25 min RT, 50 rpm
T2 construct: expressed in transfected cells; host or cells: murine pre-B cell line L1-2, vector pMRB101 derivative (pMRB107), hCMV promoter
T2 sequence (P16581 22-610): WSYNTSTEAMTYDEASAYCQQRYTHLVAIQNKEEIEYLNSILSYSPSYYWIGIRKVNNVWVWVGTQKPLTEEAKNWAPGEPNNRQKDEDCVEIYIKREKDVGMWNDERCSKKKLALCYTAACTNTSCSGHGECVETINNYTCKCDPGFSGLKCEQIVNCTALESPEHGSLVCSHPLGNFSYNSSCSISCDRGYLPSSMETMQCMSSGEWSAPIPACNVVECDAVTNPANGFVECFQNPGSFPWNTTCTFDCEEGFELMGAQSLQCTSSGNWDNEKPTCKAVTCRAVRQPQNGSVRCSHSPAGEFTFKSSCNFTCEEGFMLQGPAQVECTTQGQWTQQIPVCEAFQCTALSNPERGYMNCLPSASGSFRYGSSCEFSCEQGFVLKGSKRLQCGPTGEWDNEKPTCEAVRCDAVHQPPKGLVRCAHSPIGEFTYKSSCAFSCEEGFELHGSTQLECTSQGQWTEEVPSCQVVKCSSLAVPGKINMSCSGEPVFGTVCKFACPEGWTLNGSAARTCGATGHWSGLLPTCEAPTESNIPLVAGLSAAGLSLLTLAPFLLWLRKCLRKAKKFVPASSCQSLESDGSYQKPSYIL
Protocol: L1-2/pMRB107 cells (L1-2^ELAM-1) were prepared by transfecting the ELAM-1 gene into the murine pre-B cell line L1-2 (Gallatin et al. (1983) Nature 35 304:30-34). A cDNA clone encoding ELAM-1 was obtained from a CDNA library made from activated human umbilical vein endothelial cell cultures by polymerase chain reaction amplification. The ELAM-1 gene was inserted downstream of the hCMV promoter in pMRB101 [a derivative of EE6 which contains the E. coli gpt gene (Mulligan and Berg (1981) Proc. Nat'l. Acad. Sci. USA 78:2072; Stephens and Corbett (1989) N.A.R. 17:7110)]. DNA was introduced into L1-2 cells by electroporation and the cells selected for resistance to mycophenolic acid. A population of cells staining brightly for ELAM-1 were selected by FACS and cloned by limiting dilution. These cells are ELAM-1^hi LFA-1^mod CD45^hi CD44^neg LECAM-1^neg, differing from the parent cell line or control vector transfectants only in their expression of ELAM-1. L1-2/pMRB101 (L1-2^vector) cells are a similarly transformed derivative of L1-2 transfected with pMRB101 and lacking ELAM-1 expression.
One hundred microliter samples of each synthetic glycoconjugate in phosphate buffered saline (PBS), pH 7.2, were absorbed onto glass wells of 8-chamber slides (LabTek) for two hours at RT. For some experiments glass slides were pre-coated with rabbit anti-human serum albumin (Sigma) at 200 μg/ml overnight at 4° C. and washed with PBS prior to the addition of the glycoconjugate. After blocking with 5% NBS/ 10 mM HEPES/Dulbecco's Modified Eagles Medium (DMEM), pH 7.0 (CM), L1-2^ELAM-1 or L1-2^vector cells were applied to each well (1.5×10^6/0.15 ml in CM). After a 25 minute incubation at RT on a rotating shaker at 50 rpm, the tops of the wells were removed and the slides washed 3× in DMEM and then fixed by incubation in 1.5% glutaral-dehyde (Kodak)/DMEM. Three to six 100× fields were counted for each data point and the average and standard error are reported. Data reported are from representative experiments which were performed 2-5 times with similar results.

Row | Substance | binding of mouse lymphocytes to coated neoglycoconjugate (mouse LECAM-1) | direct binding of antibody 1H10 to neoglycoprotein (antibody 1H10) | binding of L1-2^ELAM-1 cells to coated glycoconjugate (ELAM-1)
1 | Neu5Acα2-3Galβ1-3GlcNAcβ1-3Galβ1-4(Glc) [LSTa] | not | weakly crossreacts | did not bind
2 | Neu5Acα2-6Galβ1-4GlcNAcβ1-3Galβ1-4(Glc) [LSTc] |  |  | did not bind
3 | NeuNAc α2-3Gal βl-4 (Glc) [3′SL] | not |  | did not bind
4 | NeuNAc α2-6Gal βl-4 (Glc) [6′SL] | not |  | did not bind
